{
  "source": "PubChem BioAssay AID330",
  "about": "(DTP/NCI, 2004)",
  "test_system": "P388 leukemia ip, CD2F1 mice, survival T/C",
  "assay": "NCI In Vivo Anticancer Drug Screen. Data for tumor model P388 Leukemia (intraperitoneal) in CD2F1 (CDF1) mice",
  "details": "endpoint: median survival time, higher = longer survival",
  "summary_of_the_method": "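Mice carrying the transplanted tumor received test compound or vehicle. Survival was recorded in each group, and the value is the treated-group measurement divided by that of the vehicle-treated control group.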",
  "key": {"[1]": {"details": "dose: 50.0 mg/kg/injection, schedule: Q01DX009 (ip), vehicle: saline with Tween-80"}, "[2]": {"details": "dose: 100.0 mg/kg/injection, schedule: Q01DX009 (ip), vehicle: saline with Tween-80"}, "[3]": {"details": "dose: 50.0 mg/kg/injection, schedule: Q01DX005 (ip), vehicle: saline with Tween-80"}, "[4]": {"details": "dose: 100.0 mg/kg/injection, schedule: Q01DX005 (ip), vehicle: saline with Tween-80"}, "[5]": {"details": "dose: 100.0 mg/kg/injection, schedule: Q04DX003 (ip), vehicle: saline with Tween-80"}, "[6]": {"details": "dose: 200.0 mg/kg/injection, schedule: Q04DX003 (ip), vehicle: saline with Tween-80"}, "[7]": {"details": "dose: 400.0 mg/kg/injection, schedule: Q04DX003 (ip), vehicle: saline with Tween-80"}, "[8]": {"details": "dose: 100.0 mg/kg/injection, schedule: Q04DX002 (ip), vehicle: saline with Tween-80"}},
  "note": "Values joined by “and” are separate entries in the source; they are usually repeats but may differ in a detail not shown here. Equal values may be shown once. Toxic doses and inconclusive results are not listed.",
  "data": [
    {"smiles": "NC1=NS(=O)(=O)N=C(N)C1=NNc1ccc([N+](=O)[O-])cc1", "values": [
      {"measurement": "T/C", "setting": "dose: 100.0 mg/kg/injection, schedule: Q01DX001 (ip), vehicle: saline with Tween-80", "result": "108 % of control"},
      {"measurement": "T/C", "setting": "dose: 200.0 mg/kg/injection, schedule: Q01DX001 (ip), vehicle: saline with Tween-80", "result": "92 % of control"},
      {"measurement": "T/C", "setting": "dose: 400.0 mg/kg/injection, schedule: Q01DX001 (ip), vehicle: saline with Tween-80", "result": "96 % of control"}
    ]},
    {"smiles": "CSCNC(=S)Nc1ccc(Cl)c(Cl)c1", "values": [
      {"measurement": "T/C", "setting": "[1]", "result": "100 % of control"},
      {"measurement": "T/C", "setting": "[2]", "result": "107 % of control"}
    ]},
    {"smiles": "COc1ccccc1Nc1ncnc2sc3c(c12)CCCC3", "values": [
      {"measurement": "T/C", "setting": "[3]", "result": "101 % of control"},
      {"measurement": "T/C", "setting": "[4]", "result": "95 % of control"},
      {"measurement": "T/C", "setting": "dose: 200.0 mg/kg/injection, schedule: Q01DX005 (ip), vehicle: saline with Tween-80", "result": "101 % of control"}
    ]},
    {"smiles": "C(=C/c1cc2ccc(C3=NCCN3)cc2o1)/c1cc2cc(C3=NCCN3)ccc2[nH]1", "values": [
      {"measurement": "T/C", "setting": "dose: 200.0 mg/kg/injection, schedule: Q04DX003 (ip), vehicle: suspension in saline", "result": "113 % of control"}
    ]},
    {"smiles": "C[O][Sn]([O][Sn]([Cl])([c]1ccccc1)[c]1ccccc1)([c]1ccccc1)[c]1ccccc1", "values": [
      {"measurement": "T/C", "setting": "dose: 50.0 mg/kg/injection, schedule: Q04DX003 (ip), vehicle: saline", "result": "177 % of control"},
      {"measurement": "T/C", "setting": "dose: 100.0 mg/kg/injection, schedule: Q04DX003 (ip), vehicle: suspension in saline", "result": "106 % of control"}
    ]},
    {"smiles": "Cc1cccc(C(=O)CC[N+](C)(C)C)c1", "values": [
      {"measurement": "T/C", "setting": "dose: 3.13 mg/kg/injection, schedule: Q01DX009 (ip), vehicle: saline", "result": "111 % of control"},
      {"measurement": "T/C", "setting": "dose: 6.25 mg/kg/injection, schedule: Q01DX009 (ip), vehicle: saline", "result": "109 % of control"},
      {"measurement": "T/C", "setting": "dose: 12.5 mg/kg/injection, schedule: Q01DX009 (ip), vehicle: saline", "result": "94 % of control"}
    ]},
    {"smiles": "CC(C)=CCC/C(C)=C/COc1cc(O)c2c(O)c3c(cc2c1)CC(C)(O)CC3=O", "note": "(configuration not stated)", "values": [
      {"measurement": "T/C", "setting": "dose: 6.25 mg/kg/injection, schedule: Q01DX009 (ip), vehicle: saline + Tween-80 + alcohol", "result": "107 % of control"},
      {"measurement": "T/C", "setting": "dose: 12.5 mg/kg/injection, schedule: Q01DX009 (ip), vehicle: saline + Tween-80 + alcohol", "result": "105 % of control"},
      {"measurement": "T/C", "setting": "dose: 25.0 mg/kg/injection, schedule: Q01DX009 (ip), vehicle: saline + Tween-80 + alcohol", "result": "107 % of control"}
    ]},
    {"smiles": "O=C(OCCO)c1ccccc1O", "values": [
      {"measurement": "T/C", "setting": "[5]", "result": "95 % of control"},
      {"measurement": "T/C", "setting": "[6]", "result": "104 % of control"},
      {"measurement": "T/C", "setting": "[7]", "result": "95 % of control"}
    ]},
    {"smiles": "NC(=O)CN1CCN(c2ccnc3cc(Cl)ccc23)CC1", "values": [
      {"measurement": "T/C", "setting": "dose: 25.0 mg/kg/injection, schedule: Q04DX002 (ip), vehicle: saline with Tween-80", "result": "101 % of control"},
      {"measurement": "T/C", "setting": "dose: 50.0 mg/kg/injection, schedule: Q04DX002 (ip), vehicle: saline with Tween-80", "result": "99 % of control"},
      {"measurement": "T/C", "setting": "[8]", "result": "99 % of control and 103 % of control"}
    ]},
    {"smiles": "CCCCNC(=O)Oc1ccc(OCc2ccccc2)cc1", "values": [
      {"measurement": "T/C", "setting": "[5]", "result": "100 % of control"},
      {"measurement": "T/C", "setting": "[6]", "result": "95 % of control"},
      {"measurement": "T/C", "setting": "[7]", "result": "90 % of control"}
    ]},
    {"smiles": "C=NC1C=CCC=C1", "values": [
      {"measurement": "T/C", "setting": "[8]", "result": "112 % of control"},
      {"measurement": "T/C", "setting": "dose: 200.0 mg/kg/injection, schedule: Q04DX002 (ip), vehicle: saline with Tween-80", "result": "91 % of control"}
    ]},
    {"smiles": "CC1(C)OC2(CC1C1(C)C=CC(=O)O1)CC1(O)C(CCC34CC13C(=O)OC4c1ccoc1)O2", "note": "(configuration not stated)", "values": [
      {"measurement": "T/C", "setting": "dose: 50.0 mg/kg/injection, schedule: Q01DX009 (ip), vehicle: saline", "result": "97 % of control"},
      {"measurement": "T/C", "setting": "dose: 100.0 mg/kg/injection, schedule: Q01DX009 (ip), vehicle: saline", "result": "90 % of control"},
      {"measurement": "T/C", "setting": "dose: 200.0 mg/kg/injection, schedule: Q01DX009 (ip), vehicle: saline", "result": "90 % of control"}
    ]},
    {"smiles": "CN(C)CCC(OC(=O)C(c1ccccc1)c1ccccc1)c1ccccc1", "note": "(configuration not stated)", "values": [
      {"measurement": "T/C", "setting": "[3]", "result": "101 % of control"},
      {"measurement": "T/C", "setting": "[4]", "result": "103 % of control"}
    ]},
    {"smiles": "C=CCN1CCc2c([nH]c3cc(OC)ccc23)C1C", "note": "(configuration not stated)", "values": [
      {"measurement": "T/C", "setting": "dose: 9.0 mg/kg/injection, schedule: Q01DX005 (ip), vehicle: Klucel (hydroxypropylcellulose) (HPC)", "result": "95 % of control"},
      {"measurement": "T/C", "setting": "dose: 18.0 mg/kg/injection, schedule: Q01DX005 (ip), vehicle: Klucel (hydroxypropylcellulose) (HPC)", "result": "94 % of control"},
      {"measurement": "T/C", "setting": "dose: 36.0 mg/kg/injection, schedule: Q01DX005 (ip), vehicle: Klucel (hydroxypropylcellulose) (HPC)", "result": "89 % of control"},
      {"measurement": "T/C", "setting": "dose: 72.0 mg/kg/injection, schedule: Q01DX005 (ip), vehicle: Klucel (hydroxypropylcellulose) (HPC)", "result": "94 % of control"},
      {"measurement": "T/C", "setting": "dose: 144.0 mg/kg/injection, schedule: Q01DX005 (ip), vehicle: Klucel (hydroxypropylcellulose) (HPC)", "result": "94 % of control"}
    ]},
    {"smiles": "NN1C(=O)c2ccccc2C1=O", "values": [
      {"measurement": "T/C", "setting": "[1]", "result": "96 % of control"},
      {"measurement": "T/C", "setting": "[2]", "result": "112 % of control"},
      {"measurement": "T/C", "setting": "dose: 200.0 mg/kg/injection, schedule: Q01DX009 (ip), vehicle: saline with Tween-80", "result": "95 % of control"},
      {"measurement": "T/C", "setting": "dose: 400.0 mg/kg/injection, schedule: Q01DX009 (ip), vehicle: saline with Tween-80", "result": "99 % of control"}
    ]}
  ]
}
